Measured values published in the supplement of paper PMC6045584.
± gives the standard deviation of the averaged measurements.

Legend:
DECITABINE [1] = compound: T1, Nc1ncn([C@H]2C[C@H](O)[C@@H](CO)O2)c(=O)n1 [DECITABINE]; experiment: surviving fraction relative to DMSO-only wells; higher = less growth inhibition; details: exposure time: 5 days
Outline: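 Viability values are CellTiter-Glo luminescence readings, given as surviving fraction against the median of DMSO-only wells. The readings were taken after 10 minutes at room temperature, following five days of continuous exposure to inhibitors at 0.5, 1, 5, 10, 50, 100, 500 and 1000 nM that began 24 hours after log-phase tumour cell lines were seeded at 250–500 cells per well in 384-well plates. Every line was screened three times and kept only if replicate Pearson r >0.7 and median Z' >0.3.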

17-AAG = compound: C=CCNC1=C2C[C@@H](C)C[C@H](OC)[C@H](O)[C@@H](C)/C=C(\C)[C@H](OC(N)=O)[C@@H](OC)/C=C\C=C(/C)C(=O)NC(=CC1=O)C2=O [17-AAG]; experiment: area under dose-response curve of surviving fraction (unscaled, Aref=0) (surviving fraction x log10(nM)); higher = more resistant; details: exposure time: 5 days; dose range 0.5-1000 nM
Outline: (§1)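 Tumour cell lines in 384-well plates were exposed for five days to eight inhibitor concentrations from 0.5 to 1000 nM. Viability was read by CellTiter-Glo luminescence, normalised to DMSO-only wells, in three screens per line. Dose-response survival curves were fitted to surviving fractions by 3-parameter logistic regression in the drc R package. Area under the curve is the unscaled activity area (Aref = 0) over log10 dose.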

[2] = compound: CCN(CC)CCCCNc1ncc2cc(-c3cc(OC)cc(OC)c3)c(NC(=O)NC(C)(C)C)nc2n1; experiment: as above; details: exposure time: 5 days; dose range 0.5-1000 nM
Outline: as §1

SALINOMYCIN = compound: CC[C@@H](C(=O)[C@@H](C)[C@@H](O)[C@H](C)[C@@H]1O[C@@H]([C@@H](CC)C(=O)O)CC[C@@H]1C)[C@H]1O[C@]2(C=C[C@@H](O)[C@]3(CC[C@@](C)([C@H]4CC[C@](O)(CC)[C@H](C)O4)O3)O2)[C@H](C)C[C@@H]1C [SALINOMYCIN]; experiment: as above; details: exposure time: 5 days; dose range 0.5-1000 nM
Outline: as §1

ABT-737 = compound: CN(C)CC[C@H](CSc1ccccc1)Nc1ccc(S(=O)(=O)NC(=O)c2ccc(N3CCN(Cc4ccccc4-c4ccc(Cl)cc4)CC3)cc2)cc1[N+](=O)[O-] [ABT-737]; experiment: as above; details: exposure time: 5 days; dose range 0.5-1000 nM
Outline: as §1

FLAVOPIRIDOL = compound: CN1CC[C@H](c2c(O)cc(O)c3c(=O)cc(-c4ccccc4Cl)oc23)[C@H](O)C1 [FLAVOPIRIDOL]; experiment: as above; details: exposure time: 5 days; dose range 0.5-1000 nM
Outline: as §1

2-METHOXYESTRADIOL = compound: COc1cc2c(cc1O)CC[C@@H]1[C@@H]2CC[C@]2(C)[C@@H](O)CC[C@@H]12 [2-METHOXYESTRADIOL]; experiment: as above; details: exposure time: 5 days; dose range 0.5-1000 nM
Outline: as §1

NUTLIN3 = compound: COc1ccc(C2=N[C@@H](c3ccc(Cl)cc3)[C@@H](c3ccc(Cl)cc3)N2C(=O)N2CCNC(=O)C2)c(OC(C)C)c1 [NUTLIN3]; experiment: as above; details: exposure time: 5 days; dose range 0.5-1000 nM
Outline: as §1

DOXORUBICIN = compound: COc1cccc2c1C(=O)c1c(O)c3c(c(O)c1C2=O)C[C@@](O)(C(=O)CO)C[C@@H]3O[C@H]1C[C@H](N)[C@H](O)[C@H](C)O1 [DOXORUBICIN]; experiment: as above; details: exposure time: 5 days; dose range 0.5-1000 nM
Outline: as §1

LAPATINIB = compound: CS(=O)(=O)CCNCc1ccc(-c2ccc3ncnc(Nc4ccc(OCc5cccc(F)c5)c(Cl)c4)c3c2)o1 [LAPATINIB]; experiment: as above; details: exposure time: 5 days; dose range 0.5-1000 nM
Outline: as §1

VISMODEGIB = compound: CS(=O)(=O)c1ccc(C(=O)Nc2ccc(Cl)c(-c3ccccn3)c2)c(Cl)c1 [VISMODEGIB]; experiment: as above; details: exposure time: 5 days; dose range 0.5-1000 nM
Outline: as §1

DECITABINE [3] = compound: T1, DECITABINE; experiment: as above; details: exposure time: 5 days; dose range 0.5-1000 nM
Outline: as §1

RESVERATROL = compound: Oc1ccc(/C=C/c2cc(O)cc(O)c2)cc1 [RESVERATROL]; experiment: as above; details: exposure time: 5 days; dose range 0.5-1000 nM
Outline: as §1

Test System	surviving fraction (DECITABINE [1]; 0.5 nM)	surviving fraction (DECITABINE [1]; 1 nM)	surviving fraction (DECITABINE [1]; 5 nM)	surviving fraction (DECITABINE [1]; 10 nM)	surviving fraction (DECITABINE [1]; 50 nM)	surviving fraction (DECITABINE [1]; 100 nM)	surviving fraction (DECITABINE [1]; 500 nM)	surviving fraction (DECITABINE [1]; 1000 nM)	area under dose-response curve (17-AAG)	area under dose-response curve [2]	area under dose-response curve (SALINOMYCIN)	area under dose-response curve (ABT-737)	area under dose-response curve (FLAVOPIRIDOL)	area under dose-response curve (2-METHOXYESTRADIOL)	area under dose-response curve (NUTLIN3)	area under dose-response curve (DOXORUBICIN)	area under dose-response curve (LAPATINIB)	area under dose-response curve (VISMODEGIB)	area under dose-response curve (DECITABINE [3])	area under dose-response curve (RESVERATROL)
MDAMB157 BREAST	0.998 ± 0.013	0.907 ± 0.046	0.922 ± 0.13	0.897 ± 0.065	0.632 ± 0.042	0.547 ± 0.058	0.41 ± 0.075	0.382 ± 0.059	1.61	2.73	2.66	3.26	2.21	3.1	3.22	1.21	3.27	3.26	2.4	3.39
MDAMB231 BREAST	1 ± 0.034	0.986 ± 0.024	1.01 ± 0.028	1 ± 0.022	1.01 ± 0.021	0.965 ± 0.013	0.865 ± 0.016	0.835 ± 0.039	2.14	3.28	2.97	3.28	2.26	3	3.31	2.1	3.27	3.04	3.17	3.26
MDAMB361 BREAST	0.895 ± 0.057	0.909 ± 0.034	0.938 ± 0.08	0.875 ± 0.038	0.906 ± 0.19	0.915 ± 0.17	0.99 ± 0.2	0.921 ± 0.084	1.34	2.94	2.72	2.84	2.59	2.61	2.83	2.58	2.68	2.31	3.03	2.99
MDAMB436 BREAST	1.11 ± 0.084	1.06 ± 0.079	1 ± 0.12	0.949 ± 0.09	0.927 ± 0.11	0.823 ± 0.064	0.796 ± 0.048	0.685 ± 0.032	1.77	2.96	1.74	3.13	2.13	3.01	2.99	2.04	3.11	2.81	3.1	3.36
MFM223 BREAST	1.5 ± 0.59	1.51 ± 0.5	1.45 ± 0.48	1.47 ± 0.53	1.05 ± 0.061	1.05 ± 0.1	0.993 ± 0.095	0.799 ± 0.02	1.07	2	2.35	4.23	2.3	3.08	3.57	2	3.48	3.12	3.65	3.94
MG63 BONE	0.968 ± 0.02	0.9493 ± 0.0021	0.704 ± 0.009	0.641 ± 0.0093	0.432 ± 0.017	0.356 ± 0.008	0.302 ± 0.016	0.291 ± 0.011	2.62	2.88	2.67	3.59	2.39	3.27	3.4	1.9	3.5	3.19	1.88	3.52
MHM BONE	1 ± 0.029	1 ± 0.07	1.02 ± 0.04	1.02 ± 0.062	1.05 ± 0.044	1.02 ± 0.023	1.08 ± 0.042	1.04 ± 0.038	2.77	3.05	3.24	3.61	2.77	3.26	3.28	2.66	3.38	3.42	3.4	3.41
NY BONE	0.9793 ± 0.0075	0.955 ± 0.016	1 ± 0.028	0.939 ± 0.018	0.921 ± 0.021	0.843 ± 0.054	0.649 ± 0.036	0.479 ± 0.042	1.6	2.65	2.53	3.42	2.12	2.83	3.28	1.85	3.43	3.28	2.91	3.32
OS25HAL BONE	1.01 ± 0.024	0.9963 ± 0.0074	1.08 ± 0.033	1.07 ± 0.011	1.19 ± 0.034	1.22 ± 0.034	1.047 ± 0.01	0.921 ± 0.055	2.56	3.27	2.57	3.39	2.25	3.02	3.29	1.87	3.47	3.29	3.53	3.4
OSHN BONE	1.08 ± 0.015	1.06 ± 0.028	1.11 ± 0.024	1.07 ± 0.032	1.17 ± 0.03	1.17 ± 0.017	1.22 ± 0.022	1.112 ± 0.0035	2.3	3.35	2.81	3.58	2.31	3.21	3.52	1.98	3.55	3.27	3.71	3.6
PCI30 HEADNECK	1.04 ± 0.03	1.03 ± 0.052	0.987 ± 0.053	1.06 ± 0.034	0.963 ± 0.065	0.96 ± 0.079	0.843 ± 0.056	1.08 ± 0.075	1.97	3.28	2.49	3.56	2.11	2.94	3.44	2.03	3.52	3.04	3.24	3.54
SJSA1 BONE	0.512 ± 0.028	1.53 ± 0.038	1.63 ± 0.11	0.545 ± 0.031	1.55 ± 0.081	1.68 ± 0.022	1.73 ± 0.05	1.77 ± 0.053	1.72	3.48	2.91	5.63	2.96	5.58	3.18	1.9	5.27	3.35	4.52	5.61
